Experimental data published in patent US9884842B2, “Combretastatin analogs” (The Board of Trustees of the University of Arkansas, priority 2013, dated 2018).
Read-outs that look alike come from different tables or passages of the source.

Assays:
[1] = tested on: NCI-H23; test: NCI growth inhibition and cytotoxicity screen, Lung Cancer panel; settings: Homo sapiens; for GI50: NCI-H23; for CC50: NCI-H23, read-out: LC50
[2] = tested on: CCRF-CEM; test: NCI growth inhibition and cytotoxicity screen, Leukemia panel; settings: Homo sapiens; for CC50: read-out: LC50
[3] = tested on: SW-620; test: NCI growth inhibition and cytotoxicity screen, Colon Cancer panel; settings: Homo sapiens; for GI50: SW-620; for CC50: SW-620, read-out: LC50
[4] = tested on: 786-0; test: NCI growth inhibition and cytotoxicity screen, Renal Cancer panel; settings: Homo sapiens; for GI50: 786-0; for CC50: 786-0, read-out: LC50
[5] = tested on: BT-549; test: NCI growth inhibition and cytotoxicity screen, Breast Cancer panel; settings: Homo sapiens; for GI50: BT-549; for CC50: BT-549, read-out: LC50
[6] = tested on: M14; test: NCI growth inhibition and cytotoxicity screen, Melanoma panel; settings: Homo sapiens; for GI50: M14; for CC50: M14, read-out: LC50
[7] = tested on: NCI-H322M; test: NCI growth inhibition and cytotoxicity screen, Lung Cancer panel; settings: Homo sapiens; for CC50: read-out: LC50
[8] = tested on: SR; test: NCI growth inhibition and cytotoxicity screen, Leukemia panel; settings: Homo sapiens
[9] = tested on: UO-31; test: NCI growth inhibition and cytotoxicity screen, Renal Cancer panel; settings: Homo sapiens; for GI50: UO-31; for CC50: UO-31, read-out: LC50
[10] = tested on: HCT-15; test: NCI growth inhibition and cytotoxicity screen, Colon Cancer panel; settings: Homo sapiens; for GI50: HCT-15; for CC50: HCT-15, read-out: LC50
[11] = tested on: KM12; test: as above; settings: Homo sapiens; for GI50: KM12; for CC50: KM12, read-out: LC50
[12] = tested on: SK-OV-3; test: NCI growth inhibition and cytotoxicity screen, Ovarian Cancer panel; settings: Homo sapiens; for GI50: SK-OV-3; for CC50: SK-OV-3, read-out: LC50
[13] = tested on: SF-268; test: NCI growth inhibition and cytotoxicity screen, CNS Cancer panel; settings: Homo sapiens; for GI50: SF-268; for CC50: SF-268, read-out: LC50
[14] = tested on: NCI-H226; test: NCI growth inhibition and cytotoxicity screen, Lung Cancer panel; settings: Homo sapiens; for GI50: NCI-H226; for CC50: NCI-H226, read-out: LC50
[15] = tested on: MALME-3M; test: NCI growth inhibition and cytotoxicity screen, Melanoma panel; settings: Homo sapiens; for CC50: read-out: LC50
[16] = tested on: CAKI-1; test: NCI growth inhibition and cytotoxicity screen, Renal Cancer panel; settings: Homo sapiens; for GI50: CAKI-1; for CC50: CAKI-1, read-out: LC50
[17] = tested on: NCI/ADR-RES; test: NCI growth inhibition and cytotoxicity screen, Ovarian Cancer panel; settings: Homo sapiens; for CC50: read-out: LC50
[18] = tested on: HT29; test: NCI growth inhibition and cytotoxicity screen, Colon Cancer panel; settings: Homo sapiens; for GI50: HT-29; for CC50: HT-29, read-out: LC50
[19] = tested on: K-562; test: NCI growth inhibition and cytotoxicity screen, Leukemia panel; settings: Homo sapiens; for GI50: K562; for CC50: K562, read-out: LC50
[20] = tested on: IGROV1; test: NCI growth inhibition and cytotoxicity screen, Ovarian Cancer panel; settings: Homo sapiens; for GI50: IGROV-1; for CC50: IGROV-1, read-out: LC50
[21] = tested on: NCI-H460; test: NCI growth inhibition and cytotoxicity screen, Lung Cancer panel; settings: Homo sapiens; for GI50: NCI-H460; for CC50: NCI-H460, read-out: LC50
[22] = tested on: LOX-IMVI; test: NCI growth inhibition and cytotoxicity screen, Melanoma panel; settings: Homo sapiens; for CC50: read-out: LC50
[23] = tested on: SNB-19; test: NCI growth inhibition and cytotoxicity screen, CNS Cancer panel; settings: Homo sapiens; for GI50: SNB-19; for CC50: SNB-19, read-out: LC50
[24] = tested on: HCT-116; test: NCI growth inhibition and cytotoxicity screen, Colon Cancer panel; settings: Homo sapiens; for GI50: HCT-116; for CC50: HCT-116, read-out: LC50
[25] = tested on: UACC-257; test: NCI growth inhibition and cytotoxicity screen, Melanoma panel; settings: Homo sapiens; for CC50: UACC-257, read-out: LC50
[26] = tested on: U251; test: NCI growth inhibition and cytotoxicity screen, CNS Cancer panel; settings: Homo sapiens; for GI50: U-251; for CC50: U-251, read-out: LC50
[27] = tested on: SN12C; test: NCI growth inhibition and cytotoxicity screen, Renal Cancer panel; settings: Homo sapiens; for CC50: read-out: LC50
[28] = tested on: full panel of 60 different cancer cell lines; test: NCI five dose screen, full panel summary; assay type: cell-based, human; settings: for GI50: Homo sapiens
[29] = tested on: SF-295; test: NCI growth inhibition and cytotoxicity screen, CNS Cancer panel; assay type: cell-based; settings: Homo sapiens, Table 2, cell line SF-295 (CNS Cancer)

COc1cc(/C(C#N)=C\c2cc3ccccc3s2)cc(OC)c1OC [Formula (I)(a)]
GI50 [1]: < 10 nM | CC50 [1]: > 100000 nM | GI50 [2]: < 10 nM | CC50 [2]: > 100000 nM | GI50 [3]: < 10 nM | CC50 [3]: > 100000 nM | GI50 [4]: < 10 nM | CC50 [4]: > 100000 nM | GI50 [5]: < 10 nM | CC50 [5]: > 100000 nM | GI50 [6]: < 10 nM | CC50 [6]: > 100000 nM | GI50 [7]: 18.3 nM | CC50 [7]: > 100000 nM | GI50 [8]: < 10 nM | CC50 ([8]; read-out: LC50): > 100000 nM | GI50 [9]: < 10 nM | CC50 [9]: > 100000 nM | GI50 [10]: < 10 nM | CC50 [10]: > 100000 nM | GI50 [11]: < 10 nM | CC50 [11]: > 100000 nM | GI50 [12]: < 10 nM | CC50 [12]: > 100000 nM | GI50 [13]: < 10 nM | CC50 [13]: > 100000 nM | GI50 [14]: 17.9 nM | CC50 [14]: > 100000 nM | GI50 [15]: < 10 nM | CC50 [15]: > 100000 nM | GI50 [16]: 37.8 nM | CC50 [16]: > 100000 nM | GI50 [17]: < 10 nM | CC50 [17]: > 100000 nM | GI50 [18]: < 10 nM | CC50 [18]: > 100000 nM | GI50 [19]: < 10 nM | CC50 [19]: > 100000 nM | GI50 [20]: < 10 nM | CC50 [20]: > 100000 nM | GI50 [21]: < 10 nM | CC50 [21]: > 100000 nM | GI50 [22]: < 10 nM | CC50 [22]: > 100000 nM | GI50 [23]: 39.1 nM | CC50 [23]: > 100000 nM | GI50 [24]: < 10 nM | CC50 [24]: > 100000 nM | GI50 ([25]; UACC-257): < 10 nM | CC50 [25]: > 100000 nM | GI50 [26]: < 10 nM | CC50 [26]: > 100000 nM | GI50 [27]: < 10 nM | CC50 [27]: > 100000 nM

COc1cc(OC)cc(/C(C#N)=C/c2ccc3ccccc3n2)c1 [PNR-4-84, (Z)-2-(3,5-dimethoxyphenyl)-3-(quinolin-2-yl)acrylonitrile]
GI50 [1]: 983 nM | CC50 [1]: > 100000 nM | GI50 [2]: 332 nM | CC50 [2]: > 100000 nM | GI50 [3]: 357 nM | CC50 [3]: > 100000 nM | GI50 [4]: 501 nM | CC50 [4]: > 100000 nM | GI50 [5]: 342 nM | CC50 [5]: 80600 nM | GI50 [6]: 360 nM | CC50 [6]: > 100000 nM | GI50 [7]: 3020 nM | CC50 [7]: > 100000 nM | GI50 [9]: 573 nM | CC50 [9]: > 100000 nM | GI50 [10]: 409 nM | CC50 [10]: > 100000 nM | GI50 [11]: 425 nM | CC50 [11]: > 100000 nM | GI50 [12]: 804 nM | CC50 [12]: > 100000 nM | GI50 [13]: 476 nM | CC50 [13]: > 100000 nM | GI50 [14]: 10800 nM | CC50 [14]: > 100000 nM | GI50 [15]: 348 nM | CC50 [15]: > 100000 nM | GI50 ([28]; range over the potently inhibited cell lines, read-out: GI50 ranging (potently inhibited cancer cell lines)): 94 to 983 nM | GI50 ([28]; read-out: average GI50 value on all the cancer cell lines): 490 nM | potent growth inhibition on % of the cancer cell lines ([28]; share of the cancer cell lines potently inhibited): 86% | GI50 [16]: 318 nM | CC50 [16]: > 100000 nM | GI50 [17]: 283 nM | CC50 [17]: > 100000 nM | GI50 [18]: 367 nM | CC50 [18]: > 100000 nM | GI50 [19]: 353 nM | CC50 [19]: > 100000 nM | GI50 [20]: 958 nM | CC50 [20]: > 100000 nM | GI50 [21]: 339 nM | CC50 [21]: > 100000 nM | GI50 [22]: 610 nM | CC50 [22]: > 100000 nM | GI50 [23]: 728 nM | CC50 [23]: > 100000 nM | GI50 [24]: 416 nM | CC50 [24]: 47300 nM | CC50 [25]: > 100000 nM | GI50 [26]: 425 nM | CC50 [26]: > 100000 nM | GI50 [29]: 341 nM | CC50 ([29]; read-out: LC50 (the source's name)): > 100000 nM | GI50 [27]: 661 nM | CC50 [27]: > 100000 nM
